Results published in patent US20240350522A1, “HYGROMYCIN A FOR TREATMENT OF DISEASES AND INFECTIONS” (FLIGHTPATH BIOSCIENCES, INC., priority 2021, published 2024).
Like-named read-outs stand apart in the source and are kept apart here.

Key:
Assay type in all cases: cell-based
[1] = system: Porphyromonas gingivalis (ATCC 33277); test: MBC of Hyg A against P. gingivalis
[2] = system: F. nucleatum periodonticum; test: Kirby-Bauer diffusion assay; settings: Fusobacterium nucleatum, mean (SEM), read-out: size of zone inhibition (mm); for zone of inhibition at 5 µg/disc: Hyg A 5 μg per disc; for zone of inhibition at 10 µg/disc: Hyg A 10 μg per disc; for zone of inhibition at 20 µg/disc: Hyg A 20 μg per disc; for zone of inhibition at 40 µg/disc: Hyg A 40 μg per disc
Protocol: (§1) Three representatives of 6 subspecies of Fusobacterium nucleatum (F. nucleatum) for a total of 18 strains were tested in the experiment. The sub species and strains are described in Table 2.
(§2) All strains were verified by 16S V3/V6 sequence analysis prior to use. The methods described herein were performed in an anaerobic chamber at 37° C. All media and plates were degassed prior to use.
(§3) Hygromycin A (Hyg A) discs were prepared by solubilizing Hyg A in distilled water and sterile filtered. Clindamycin was used as a positive control. Defined amounts of hygromycin A (40, 20, 10 or 5 micrograms), clindamycin (2 micrograms) or sterile distilled water were absorbed onto Kirby-Bauer discs in a biosafety cabinet.
(§4) An overnight culture was grown in Wilkins-Chalgren (WC) broth and back-diluted 1:10 in fresh broth. When an OD 600 reading reached 0.5, 300 μL of the log phase culture was plated onto WC agar plates. The plates were sectioned into quadrants and a Kirby-Bauer (KB) disc impregnated with a defined amount of hygromycin A was placed in each quadrant. Plates were prepared thus in triplicate and the four amounts of hygromycin A were 40, 20 10 and 5 micrograms. The same volume of culture was spread on fourth plate sectioned into six sections for three positive and three negative controls. KB discs with water served as negative controls and KB discs impregnated with 2 micrograms of clindamycin served as positive controls. […] Table 3, Table 4, Table 5, Table 6, Table 7, Table 8 show the mean size of zone inhibitions for each of the subspecies tested using increasing concentrations of hygromycin A where the standard error of mean is represented in parenthesis.
(§5) The amount of hygromycin A was plotted against the size of the zone of inhibition for each strain tested.

F. nucleatum fusiforme = test: Kirby-Bauer diffusion assay; settings: Fusobacterium nucleatum, mean (SEM), read-out: size of zone inhibition (mm); for zone of inhibition at 5 µg/disc: Hyg A 5 μg per disc; for zone of inhibition at 10 µg/disc: Hyg A 10 μg per disc; for zone of inhibition at 20 µg/disc: Hyg A 20 μg per disc; for zone of inhibition at 40 µg/disc: Hyg A 40 μg per disc
Protocol: as §1, §2, §3, §4, §5

F. nucleatum polymorphum = test: Kirby-Bauer diffusion assay; settings: Fusobacterium nucleatum, mean (SEM), read-out: size of zone inhibition (mm); for zone of inhibition at 5 µg/disc: Hyg A 5 μg per disc; for zone of inhibition at 10 µg/disc: Hyg A 10 μg per disc; for zone of inhibition at 20 µg/disc: Hyg A 20 μg per disc; for zone of inhibition at 40 µg/disc: Hyg A 40 μg per disc
Protocol: as §1, §2, §3, §4, §5

F. nucleatum nucleatum = test: Kirby-Bauer diffusion assay; settings: Fusobacterium nucleatum, mean (SEM), read-out: size of zone inhibition (mm); for zone of inhibition at 5 µg/disc: Hyg A 5 μg per disc; for zone of inhibition at 10 µg/disc: Hyg A 10 μg per disc; for zone of inhibition at 20 µg/disc: Hyg A 20 μg per disc; for zone of inhibition at 40 µg/disc: Hyg A 40 μg per disc
Protocol: as §1, §2, §3, §4, §5

[3] = strain 203C15, 42 mm = assigned maximum
[4] = strain 203L25, 42 mm = assigned maximum
[5] = strain 25586 (second column so headed)
[6] = strain 25586, 42 mm = assigned maximum

Structure (SMILES): CC(=O)[C@H]1O[C@@H](Oc2ccc(/C=C(\C)C(=O)N[C@@H]3[C@H](O)[C@@H](O)[C@H]4OCO[C@H]4[C@@H]3O)cc2O)[C@@H](O)[C@@H]1O [Hyg A, Hygromycin A]
- MBC ([1]; ATCC33277, P. gingivalis 33277, experiment 1, read-out: MBC (μg/ml) 1): > 5 µg/mL
- MBC ([1]; ATCC33277, P. gingivalis 33277, experiment 2, read-out: MBC (μg/ml) 2): > 5 µg/mL
- zone of inhibition at 5 µg/disc ([2]; strain 2_1_31 EAV015): 20.3 mm
- zone of inhibition at 10 µg/disc ([2]; strain 2_1_31 EAV015): 23.3 mm
- zone of inhibition at 20 µg/disc ([2]; strain 2_1_31 EAV015): 25.3 mm
- zone of inhibition at 40 µg/disc ([2]; strain 2_1_31 EAV015): 30 mm
- zone of inhibition at 5 µg/disc ([2]; strain 3_1_7B): 29.3 mm
- zone of inhibition at 10 µg/disc ([2]; strain 3_1_7B): 34.3 mm
- zone of inhibition at 20 µg/disc ([2]; strain 3_1_7B): 36 mm
- zone of inhibition at 40 µg/disc ([2]; strain 3_1_7B): 40 mm
- zone of inhibition at 5 µg/disc ([2]; strain 209B32): 22 mm
- zone of inhibition at 10 µg/disc ([2]; strain 209B32): 25.7 mm
- zone of inhibition at 20 µg/disc ([2]; strain 209B32): 30.7 mm
- zone of inhibition at 40 µg/disc ([2]; strain 209B32): 35 mm
- zone of inhibition at 5 µg/disc (F. nucleatum fusiforme; strain 203C15): 18 mm
- zone of inhibition at 10 µg/disc (F. nucleatum fusiforme; strain 203C15): 24 mm
- zone of inhibition at 20 µg/disc (F. nucleatum fusiforme; [3]): 42 mm
- zone of inhibition at 40 µg/disc (F. nucleatum fusiforme; [3]): 42 mm
- zone of inhibition at 5 µg/disc (F. nucleatum fusiforme; strain 203L25): 25 mm
- zone of inhibition at 10 µg/disc (F. nucleatum fusiforme; strain 203L25): 28.7 mm
- zone of inhibition at 20 µg/disc (F. nucleatum fusiforme; [4]): 42 mm
- zone of inhibition at 40 µg/disc (F. nucleatum fusiforme; [4]): 42 mm
- zone of inhibition at 5 µg/disc (F. nucleatum fusiforme; strain 203L30): 22.3 mm
- zone of inhibition at 10 µg/disc (F. nucleatum fusiforme; strain 203L30): 24.3 mm
- zone of inhibition at 20 µg/disc (F. nucleatum fusiforme; strain 203L30): 28 mm
- zone of inhibition at 40 µg/disc (F. nucleatum fusiforme; strain 203L30): 30 mm
- zone of inhibition at 5 µg/disc (F. nucleatum polymorphum; strain 13_3C EAV005): 16.7 mm
- zone of inhibition at 10 µg/disc (F. nucleatum polymorphum; strain 13_3C EAV005): 20 mm
- zone of inhibition at 20 µg/disc (F. nucleatum polymorphum; strain 13_3C EAV005): 25.7 mm
- zone of inhibition at 40 µg/disc (F. nucleatum polymorphum; strain 13_3C EAV005): 27.3 mm
- zone of inhibition at 5 µg/disc (F. nucleatum polymorphum; strain 203L28): 20.3 mm
- zone of inhibition at 10 µg/disc (F. nucleatum polymorphum; strain 203L28): 23 mm
- zone of inhibition at 20 µg/disc (F. nucleatum polymorphum; strain 203L28): 24 mm
- zone of inhibition at 40 µg/disc (F. nucleatum polymorphum; strain 203L28): 30.3 mm
- zone of inhibition at 5 µg/disc (F. nucleatum polymorphum; strain 203L29): 18.3 mm
- zone of inhibition at 10 µg/disc (F. nucleatum polymorphum; strain 203L29): 20.3 mm
- zone of inhibition at 20 µg/disc (F. nucleatum polymorphum; strain 203L29): 24 mm
- zone of inhibition at 40 µg/disc (F. nucleatum polymorphum; strain 203L29): 26.7 mm
- zone of inhibition at 5 µg/disc (F. nucleatum nucleatum; strain 203L34): 24 mm
- zone of inhibition at 10 µg/disc (F. nucleatum nucleatum; strain 203L34): 30 mm
- zone of inhibition at 20 µg/disc (F. nucleatum nucleatum; strain 203L34): 39.7 mm
- zone of inhibition at 40 µg/disc (F. nucleatum nucleatum; strain 203L34, 42 mm = assigned maximum): 42 mm
- zone of inhibition at 5 µg/disc (F. nucleatum nucleatum; strain 25586 (first column)): 16 mm
- zone of inhibition at 10 µg/disc (F. nucleatum nucleatum; strain 25586 (first column)): 20 mm
- zone of inhibition at 5 µg/disc (F. nucleatum nucleatum; [5]): 25.7 mm
- zone of inhibition at 10 µg/disc (F. nucleatum nucleatum; [5]): 30 mm
- zone of inhibition at 20 µg/disc (F. nucleatum nucleatum; [6]): 42 mm
- zone of inhibition at 20 µg/disc (F. nucleatum nucleatum; strain 25586): 26 mm
- zone of inhibition at 40 µg/disc (F. nucleatum nucleatum; [6]): 42 mm
